These results are taken from patent US5853695A, “Method for palliation of pain in human bone cancer using therapeutic tin-117m compositions” (Brookhaven Science Associates LLC, priority 1996, dated 1998).

“Also recorded” adds a separate entry of the source.

The subject of one data set is bone pain. The experiment in a line: Palliation of bone pain in human subjects (clinical study, patient pain records). The format is in vivo. Details: key to Result (pain relief): -: No relief; +: Partial Relief; ++: Good Relief. The procedure: (§1) Fourteen patients were enrolled in a controlled clinical study, including 9 males and 5 females. The patients were administered an Sn-117m chelate complex-containing composition (described above in Example 3) sufficient to provide between 33 and 156 μCi/kg body weight. The protocol was approved by an institutional review board and the United States Food and Drug Administration (FDA). All subjects gave informed consent.
(§2) Prior to initiation of therapy a Tc-99m MDP bone imaging study was obtained. Complete blood counts, including a differential and platelet count, electrolytes, and blood chemistries were obtained. No radiotherapy or chemotherapy had been administered to the patients in the prior month. Hormonal therapy was continued if the patient had been on hormonal therapy for more than three months without improvement in their clinical status.
(§3) Sn-117m (Sn^4+) DTPA was administered through an inlying infusion line over a period of 5-10 minutes. […] A complete urine collection was obtained over 4 days and a blood specimen obtained on the fourth day. This enabled an estimate of bone uptake. Two imaging studies to monitor the Sn-117m distribution were obtained in the first week and repeat chemistries were obtained at one week. Complete blood counts were obtained weekly for at least two months and less frequently thereafter. A repeat Tc-99m MDP bone imaging study was performed at two months.
Patients maintained a record of pain levels and sites daily for two weeks and then twice a week for the next 6 weeks.

The test system of data set [1] is bone. The experiment in a line: External gamma camera / SPECT imaging of distribution in patients. The format is in vivo, human. The procedure:
Also note that the dose of the Sn-117m compound is within the range of dosages found to palliate pain according to the method of the invention.
The right panel depicts a three-dimensional reprojection image from SPECT (Single Photon Emission Computed Tomography) of a portion of the skeleton in the same patient.
as §3

For data set [2], the system named is white blood cells and platelets. The experiment in a line: Hemopoietic toxicity by complete blood counts (white blood cells, platelets). The format is in vivo, human. How it is done:
as §2, §3
As a result, a dosage of the Sn-117m chelate within the range found to be effective for consistent pain reduction can also be expected to be non-toxic to the patient.

In data set [3] the test system is bone. The experiment in a line: Bone uptake estimated from 4-day urine collection and blood specimen (% Total in Bone). It is filed as in vivo, human. Particulars: i.v. infusion. The procedure:
as §1, §3

As to “Sn-117m (Sn^4+) diethylenetriaminepentaacetic acid [Sn-117m (Sn^4+) DTPA]”, the “Result (pain relief)” value with bone pain (Patient 4, prostate cancer, 61 kg, single 4.70 mCi (0.077 mCi/kg)) is reported as “-”; in the data set with bone pain (Patient 6, unknown primary cancer, 108 kg, single 8.41 mCi (0.078 mCi/kg)), “+”; in the data set with bone pain (Patient 7, prostate cancer, 59 kg, single 4.95 mCi (0.084 mCi/kg)) it was “++”; in the data set with bone pain (Patient 8, lung cancer, 61 kg, single 8.95 mCi (0.146 mCi/kg)), “++”; in the data set with bone pain (Patient 9, breast cancer, 59 kg, single 8.41 mCi (0.142 mCi/kg)) it was “++”; with bone pain (Patient 10, breast cancer, 59 kg, single 8.00 mCi (0.135 mCi/kg)), “++”. Moreover, the “Result (pain relief)” value is “+” in the data set with bone pain (Patient 11, prostate cancer, 67 kg, single 10.46 mCi (0.156 mCi/kg)); “++” in the data set with bone pain (Patient 12, prostate cancer, 93 kg, single 14.46 mCi (0.156 mCi/kg)); “++” in the data set with bone pain (Patient 13, prostate cancer, 118 kg, single 15.49 mCi (0.131 mCi/kg)); “+” in the data set with bone pain (Patient 14, breast cancer, 50 kg, single 7.54 mCi (0.151 mCi/kg)). Also, in the data set on bone pain (patients given a lower dose), the “response to treatment, lower dose” value was “variable response to the treatment, in one case indicating that no relief was had”. Moreover, the “relief of pain, higher dose” value in the data set on bone pain (seven patients who received more than about 9 mCi/70 kg (~129 μCi/kg), listed as Sn-117m chelates) is reported as “all experienced relief of pain; also recorded: five experienced excellent relief; also recorded: two experienced partial relief”. The “relief or palliation of pain, overall” value in the data set on bone pain (single administrations, 33 to 156 μCi/kg, fourteen patients) is “dose-dependent relief or palliation of pain”. In the data set on bone [1] (cancer patient with bone metastases, 4 days after 5 mCi, FIG. 2), the “distribution in bone, whole body and SPECT images” value is reported as “patchy bright spots denote spread of cancer to bone”. Moreover, the “distribution in bone by gamma camera imaging compared with technetium-99m-MDP” value in the data set on bone [1] (patient with prostate cancer spread to bone, 4 days after 10 mCi, FIG. 1) is reported as “similarity of distribution of the two nuclides”. In addition, in data set [2] (Patient 11, over three months following single administration (10.4 mCi)), the “white blood cell (WBC) count or platelet count” value is “no decrease”. Further, the hemopoietic toxicity entry in data set [2] (all patients in the study) is listed as “no patients in the study showed evidence of hemopoietic toxicity”. The “% Total in Bone” value with bone [3] (Patient 9, breast cancer, 8.41 mCi (0.142 mCi/kg)) was 72.1%; with bone [3] (Patient 10, breast cancer, 8.00 mCi (0.135 mCi/kg)), 59.2%; with bone [3] (Patient 11, prostate cancer, 10.46 mCi (0.156 mCi/kg)), 58.0%; in the data set on bone [3] (Patient 12, prostate cancer, 14.46 mCi (0.156 mCi/kg)), 34.1%; with bone [3] (Patient 13, prostate cancer, 15.49 mCi (0.131 mCi/kg)) it was 71.3%; in the data set with bone [3] (Patient 14, breast cancer, 7.54 mCi (0.151 mCi/kg)), 69.2%.
